Entries after “also recorded” stand apart in the source; their conditions may differ. Values belong to the compound of their own block, whether it stands above or below them.
Legend:
[1] = test system: Ishikawa cells; test: Sulforhodamine B (SRB) cell viability assay; type: cell-based, human; settings: for cytotoxicity at highest applied concentration / Onset of cytotoxicity (lowest observed effect level), LOEL: Ishikawa cells; for cytotoxicity at highest applied concentration: 48 h; for Onset of cytotoxicity (lowest observed effect level), LOEL: 48 h incubation, at least three independent SRB assays
Description: To ensure that effects observed in ALP assays were not caused by cytotoxicity, SRB cell viability assays were carried out in parallel. As with estrogenicity assays, 10,000 cells/well were seeded in 96-well plates, allowed to grow for 48 h and incubated with test solutions for another 48 h. Afterwards, cells were fixed by addition of 50% (v/v) trichloroacetic acid and 1 h incubation at 4°C. After 2 times washing with tab water and 2 times of washing with 1% (v/v) acetic acid, plates were dried overnight, incubated with SRB reagent for 45 min, washed twice with water, twice with 1% acetic acid and again dried overnight. Lastly, 10 mM TRIS base buffer was added to dissolve protein-bound SRB and the absorbance of each well was measured at 570 nm with a PerkinElmer Victor 3V^TM plate reader.
To ensure non-cytotoxicity and thus to exclude false reporting anti-estrogenic effects, SRB cell viability assays were carried out in parallel (Ishikawa cells, 48 h incubation) to ALP assays. The single pesticides Dic, End, Fen and Met caused cytotoxic effects at high concentrations, with the lowest observed effect doses reported in Table 3. iX lead to a loss of cellular protein at the highest applied dose of 100 μM, a concentration which was however not applied in ALP assays.

[2] = test system: ER-dependent induction of ALP expression in Ishikawa cells; test: Alkaline phosphatase (ALP) assay for estrogenicity; type: cell-based, human; settings: for lowest concentration inducing ALP expression (starting from): single compound; for plateau of enzymatic (ALP) activity: relative to 1 nM E2 = 100%
Excerpt: In the present study, five exemplary pesticides (Figure 1B) were selected based on at least one published report of them acting as ER agonists, among them the publicly discussed herbicide glyphosate (GLP). Alkaline phosphatase (ALP) expression in Ishikawa cells was used as a natural reporter gene system for estrogenicity. On the contrary to some other in vitro test systems, this human endometrial cancer cell line expresses both, ER-α and ER-β, and thus facilitates the observation of interactions between chemicals acting as agonists to different receptor isoforms ([22]). Measuring the ALP-catalyzed conversion rate of 4-nitrophenyl phosphate to 4-nitrophenol as a marker for enzyme expression and thus ER activation, the test compounds were tested individually and in combination to generally address the concern of cumulative effects within this class of pesticides. To enable a direct comparison of effect strength, the same test system was used to determine the estrogenicity of a mixture of the most important hop polyphenols, resembling their respective concentration ratios in beer. Lastly, the two mixtures were combined in different ratios to assess potential combinatory effects toward ER activation.
ALP assays were performed as recently described ([23]). Briefly, 10,000 Ishikawa cells per well were seeded in 96-well plates and allowed to attach for 48 h in assay medium (phenol red - free DMEM/F-12 supplemented with 1% (v/v) CD-FBS and 1% (v/v) P/S). Stock solutions were prepared by solving test compounds in DMSO, which were then diluted to the test concentrations in assay medium, resulting in a final DMSO concentration of 0.1–0.2% (v/v) (depending on the number of mixed compounds in incubation solutions, but consistently reflected by the same concentration in the respective solvent control). Cells were incubated with incubation solutions containing the test compounds or combinations thereof for another 48 h. Subsequently, cells were washed with PBS and lyzed by shock-freezing. ALP activity was determined by monitoring the conversion of 4-nitrophenyl phosphate to 4-nitrophenol photometrically at 405 nm with a PerkinElmer Victor 3V^TM plate reader. The slope of the obtained dose-response curves was taken as a measure for the ER-dependent induction of ALP expression.
In brief, this method uses the mass-action law-derived median-effect equation (MDEE) to linearize dose-response curves of single compounds and combinations thereof. Subsequently, it facilitates the calculation of a parameter (the CI) which is indicative for the type and strength of a combinatory effect. […] To apply the model to ALP assay data, the latter were normalized to both, the solvent control and the positive control (1 nM E2, 100% effect). MDEE fitting and CI calculations were carried out using the CISNE tool ([26]) and MS Excel. Corresponding graphs and all further statistical calculations (normal distribution, one-way ANOVA, etc.) were carried out in Origin® 2020.

[3] = test system: MCF-7 breast cancer cells; set-up: method as in PMID 28711546; settings: cited from earlier work
[4] = Pharmacokinetics of 8PN in humans receiving an extract from hops; type: in vivo; settings: consumption of 0.5–1 L of average-hopped beer, assuming linear kinetics
Excerpt: (§1) An often-used justification for discarding endocrine disrupting phytoestrogens in beer as a health concern is that the low bioavailability of hop polyphenols would limit systemically achieved doses to non-hazardous concentrations. At first sight, this notion seems to be supported by pharmacokinetic studies. […] This might partially result from the additional formation of 8PN from the naturally co-occurring iX, the most prevalent prenylflavonoid in beer ([24]), within the human gut ([18]) and liver ([31]). This reaction should be regarded as a metabolic activation due to the much higher estrogenicity of the reaction product. Assuming linear kinetics, the consumption of 0.5–1 L of average-hopped beer (Table 2) could result in systemic 8PN concentrations around 0.5 nM, a dose sufficient to cause significant estrogenicity in our in vitro test system (Figure 2).

[5] = humans, extract from hops containing 0.25 mg 8PN; cited from earlier work
[6] = set-up: method as in PMID 24038952; settings: humans, 20 mg of XN; cited from earlier work
[7] = test system: ER-dependent induction of ALP expression in Ishikawa cells; set-up: method as in PMID 30283786; settings: cited from earlier work
[8] = Human intervention study, pharmacokinetics of XN; type: in vivo; settings: plasma, 20 mg, estimated from CMax/AUC assuming standard physiological parameters, read-out: bioavailability (rough estimate)
Excerpt: as §1

[9] = test system: Ishikawa cells; settings: cited from earlier work
[10] = Ishikawa cells, 48 h, scaled to 1 nM E2 = 100%

SMILES: O=C(O)CNCP(=O)(O)O [Glp, glyphosate]
cytotoxicity ([1]; concentrations up to 300 μM): neither ER-mediated gene expression nor cytotoxicity
cytotoxicity at highest applied concentration ([1]; up to 500 μM): no cytotoxicity
ER-mediated gene expression (ALP) ([2]; concentrations up to 300 μM): neither ER-mediated gene expression nor cytotoxicity; also recorded: did not act estrogenic
concentration causing estrogen-like growth stimulation [3]: ≥ 59 µM

SMILES: CC(C)=CCc1c(O)cc(O)c2c1O[C@H](c1ccc(O)cc1)CC2=O [8PN, 8-prenylnaringenin]
cytotoxicity at highest applied concentration ([1]; 500 nM): no cytotoxicity
estimated systemic concentration [4]: around 0.5 nM
AUC [5]: 24.3 ± 8.9 ng·h/mL
CMax [5]: 1.4 ± 0.3 µg/L
Cmax [5]: 3.8 nM
ED50 of ALP induction [2, 10]: 2.44 ± 1.60 nM
lowest concentration inducing ALP expression (starting from) ([2]; Ishikawa cells, 48 h): 0.5 nM
plateau of enzymatic (ALP) activity [2]: about 75%

bioavailability [8]: ~2%
SMILES: COc1cc(O)c(CC=C(C)C)c(O)c1C(=O)/C=C/c1ccc(O)cc1 [XN, xanthohumol]
area under the curve (AUC) [6]: 92 ± 68 ng·h/mL
peak plasma concentration (CMax) [6]: 33 ± 7 µg/L
estrogenicity in this test system [7]: not to act estrogenic
cytotoxicity in this experimental setup [9]: non-cytotoxicity

SMILES: OC(c1ccc(Cl)cc1)(c1cncnc1)c1ccccc1Cl (stereo not shown) [Fen, fenarimol]
Onset of cytotoxicity (lowest observed effect level), LOEL [1]: 100 µM
lowest concentration inducing ALP expression (starting from) ([2]; Ishikawa cells, 48 h): 2.5 nM

SMILES: COc1cc(O)c(CC=C(C)C)c2c1C(=O)CC(c1ccc(O)cc1)O2 (stereo not shown) [iX, isoxanthohumol]
Onset of cytotoxicity (lowest observed effect level), LOEL [1]: 100 µM
ED50 of ALP induction [2, 10]: 342 ± 125 nM
lowest concentration inducing ALP expression (starting from) ([2]; Ishikawa cells, 48 h): 100 nM
plateau of enzymatic (ALP) activity [2]: about 75%

SMILES: C[C@]12CC[C@@H]3c4ccc(O)cc4C[C@@H](CCCCCCCCC[S+]([O-])CCCC(F)(F)C(F)(F)F)[C@H]3[C@@H]1CC[C@@H]2O (stereo partly shown) [ICI 182,780, fulvestrant, reference compound]
effect of co-incubation on estrogenicity of active compounds ([2]; co-incubation with active concentrations of the compounds): suppression of estrogenicity

SMILES: O=S1OCC2C(CO1)C1(Cl)C(Cl)=C(Cl)C2(Cl)C1(Cl)Cl (stereo not shown) [End, endosulfan]
Onset of cytotoxicity (lowest observed effect level), LOEL [1]: 50 µM
lowest concentration inducing ALP expression (starting from) ([2]; Ishikawa cells, 48 h): 5 nM
ED50 of ALP induction ([2]; calculated with the CISNE tool): 12300 ± 2900 nM

SMILES: OC(c1ccc(Cl)cc1)(c1ccc(Cl)cc1)C(Cl)(Cl)Cl [Dic, dicofol]
Onset of cytotoxicity (lowest observed effect level), LOEL [1]: 50 µM
lowest concentration inducing ALP expression (starting from) ([2]; Ishikawa cells, 48 h): 10 nM

SMILES: CNC(=O)Oc1cc(C)c(SC)c(C)c1 [Met, methiocarb]
Onset of cytotoxicity (lowest observed effect level), LOEL [1]: 100 µM
lowest concentration inducing ALP expression (starting from) ([2]; Ishikawa cells, 48 h): 10 nM

— PMC8215115, “Systemically Achievable Doses of Beer Flavonoids Induce Estrogenicity in Human Endometrial Cells and Cause Synergistic Effects With Selected Pesticides” (Frontiers in Nutrition, 2021)
